Laboratory results reported in ChEMBL document CHEMBL3991601, “The target landscape of clinical kinase drugs” (Science, 2017).
Where a name gives a salt, the structure may show the parent alone. Calls of active or inactive are those of the source. Cut-off read from the data, not from the text of the source, for most assays here: actives have a measured Kd and inactives only a lower limit.

Tests used:
[1] = biological target: T1, Beta-adrenergic receptor kinase 1 (Homo sapiens, UniProt P25098)
T1 sequence (P25098 whole entry): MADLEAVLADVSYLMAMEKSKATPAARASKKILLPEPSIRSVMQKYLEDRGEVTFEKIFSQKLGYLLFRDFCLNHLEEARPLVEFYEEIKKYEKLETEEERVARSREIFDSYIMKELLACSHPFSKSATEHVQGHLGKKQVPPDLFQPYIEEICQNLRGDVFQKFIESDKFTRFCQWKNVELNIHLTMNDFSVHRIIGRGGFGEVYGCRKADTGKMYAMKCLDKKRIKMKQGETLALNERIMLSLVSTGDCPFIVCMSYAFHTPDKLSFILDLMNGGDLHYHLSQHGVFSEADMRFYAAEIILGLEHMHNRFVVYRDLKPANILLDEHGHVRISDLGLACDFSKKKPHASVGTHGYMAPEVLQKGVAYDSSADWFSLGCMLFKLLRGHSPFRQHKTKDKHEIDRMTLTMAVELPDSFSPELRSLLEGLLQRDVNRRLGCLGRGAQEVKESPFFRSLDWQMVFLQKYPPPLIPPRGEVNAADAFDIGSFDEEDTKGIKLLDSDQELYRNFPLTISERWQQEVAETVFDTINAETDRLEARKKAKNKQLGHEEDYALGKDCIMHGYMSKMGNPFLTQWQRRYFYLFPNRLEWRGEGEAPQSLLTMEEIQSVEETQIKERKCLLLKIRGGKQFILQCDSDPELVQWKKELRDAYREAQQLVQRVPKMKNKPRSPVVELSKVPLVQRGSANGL

[2] = biological target: 5'-AMP-activated protein kinase catalytic subunit alpha-1 (Homo sapiens, UniProt Q13131)
Chain of 5'-AMP-activated protein kinase catalytic subunit alpha-1 (Q13131 whole entry): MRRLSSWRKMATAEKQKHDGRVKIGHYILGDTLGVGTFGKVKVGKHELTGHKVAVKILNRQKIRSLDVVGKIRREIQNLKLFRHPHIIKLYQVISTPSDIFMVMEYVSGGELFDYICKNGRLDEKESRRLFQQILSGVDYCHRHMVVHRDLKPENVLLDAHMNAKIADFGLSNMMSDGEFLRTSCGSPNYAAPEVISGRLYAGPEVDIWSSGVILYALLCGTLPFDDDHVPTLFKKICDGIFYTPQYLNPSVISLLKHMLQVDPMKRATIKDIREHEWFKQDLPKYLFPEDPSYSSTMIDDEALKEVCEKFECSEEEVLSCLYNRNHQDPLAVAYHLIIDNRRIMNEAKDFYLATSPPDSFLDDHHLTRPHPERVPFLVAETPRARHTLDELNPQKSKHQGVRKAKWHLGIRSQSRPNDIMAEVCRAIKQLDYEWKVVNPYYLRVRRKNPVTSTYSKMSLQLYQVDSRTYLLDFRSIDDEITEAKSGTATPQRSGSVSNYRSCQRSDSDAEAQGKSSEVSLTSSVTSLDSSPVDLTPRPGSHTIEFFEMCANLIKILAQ

[3] = biological target: Platelet-derived growth factor receptor beta (Homo sapiens, UniProt P09619)
Chain of Platelet-derived growth factor receptor beta (P09619 whole entry): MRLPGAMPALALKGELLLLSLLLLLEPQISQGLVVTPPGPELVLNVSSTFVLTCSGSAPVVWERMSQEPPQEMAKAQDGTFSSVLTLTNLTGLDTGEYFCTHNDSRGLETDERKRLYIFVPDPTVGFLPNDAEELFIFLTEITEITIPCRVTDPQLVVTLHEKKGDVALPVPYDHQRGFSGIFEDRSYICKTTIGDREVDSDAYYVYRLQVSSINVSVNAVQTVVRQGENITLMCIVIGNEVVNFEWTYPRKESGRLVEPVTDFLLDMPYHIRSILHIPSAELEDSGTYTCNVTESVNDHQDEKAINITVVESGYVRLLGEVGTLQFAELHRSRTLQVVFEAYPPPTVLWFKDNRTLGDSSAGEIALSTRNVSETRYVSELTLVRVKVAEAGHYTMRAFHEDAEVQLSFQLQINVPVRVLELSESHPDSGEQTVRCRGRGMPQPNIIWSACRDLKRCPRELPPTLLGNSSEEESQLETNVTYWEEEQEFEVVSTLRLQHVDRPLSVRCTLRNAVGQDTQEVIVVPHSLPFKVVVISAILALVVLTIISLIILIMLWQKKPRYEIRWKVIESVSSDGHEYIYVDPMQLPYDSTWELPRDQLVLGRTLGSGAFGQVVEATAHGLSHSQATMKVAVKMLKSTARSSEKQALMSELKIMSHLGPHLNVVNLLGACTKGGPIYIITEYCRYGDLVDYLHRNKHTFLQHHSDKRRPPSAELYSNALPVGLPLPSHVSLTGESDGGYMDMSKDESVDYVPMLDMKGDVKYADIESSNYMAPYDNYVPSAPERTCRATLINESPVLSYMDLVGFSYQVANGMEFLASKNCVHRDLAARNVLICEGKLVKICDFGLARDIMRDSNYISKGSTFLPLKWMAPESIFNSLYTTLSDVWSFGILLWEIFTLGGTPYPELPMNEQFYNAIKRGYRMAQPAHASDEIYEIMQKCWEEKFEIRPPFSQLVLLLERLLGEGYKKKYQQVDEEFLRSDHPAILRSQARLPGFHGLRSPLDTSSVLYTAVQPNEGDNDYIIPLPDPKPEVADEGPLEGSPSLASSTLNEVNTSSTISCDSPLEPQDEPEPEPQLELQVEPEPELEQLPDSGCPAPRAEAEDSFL

[4] = biological target: Tyrosine-protein kinase ABL2 (Homo sapiens, UniProt P42684)
Chain of Tyrosine-protein kinase ABL2 (P42684 whole entry): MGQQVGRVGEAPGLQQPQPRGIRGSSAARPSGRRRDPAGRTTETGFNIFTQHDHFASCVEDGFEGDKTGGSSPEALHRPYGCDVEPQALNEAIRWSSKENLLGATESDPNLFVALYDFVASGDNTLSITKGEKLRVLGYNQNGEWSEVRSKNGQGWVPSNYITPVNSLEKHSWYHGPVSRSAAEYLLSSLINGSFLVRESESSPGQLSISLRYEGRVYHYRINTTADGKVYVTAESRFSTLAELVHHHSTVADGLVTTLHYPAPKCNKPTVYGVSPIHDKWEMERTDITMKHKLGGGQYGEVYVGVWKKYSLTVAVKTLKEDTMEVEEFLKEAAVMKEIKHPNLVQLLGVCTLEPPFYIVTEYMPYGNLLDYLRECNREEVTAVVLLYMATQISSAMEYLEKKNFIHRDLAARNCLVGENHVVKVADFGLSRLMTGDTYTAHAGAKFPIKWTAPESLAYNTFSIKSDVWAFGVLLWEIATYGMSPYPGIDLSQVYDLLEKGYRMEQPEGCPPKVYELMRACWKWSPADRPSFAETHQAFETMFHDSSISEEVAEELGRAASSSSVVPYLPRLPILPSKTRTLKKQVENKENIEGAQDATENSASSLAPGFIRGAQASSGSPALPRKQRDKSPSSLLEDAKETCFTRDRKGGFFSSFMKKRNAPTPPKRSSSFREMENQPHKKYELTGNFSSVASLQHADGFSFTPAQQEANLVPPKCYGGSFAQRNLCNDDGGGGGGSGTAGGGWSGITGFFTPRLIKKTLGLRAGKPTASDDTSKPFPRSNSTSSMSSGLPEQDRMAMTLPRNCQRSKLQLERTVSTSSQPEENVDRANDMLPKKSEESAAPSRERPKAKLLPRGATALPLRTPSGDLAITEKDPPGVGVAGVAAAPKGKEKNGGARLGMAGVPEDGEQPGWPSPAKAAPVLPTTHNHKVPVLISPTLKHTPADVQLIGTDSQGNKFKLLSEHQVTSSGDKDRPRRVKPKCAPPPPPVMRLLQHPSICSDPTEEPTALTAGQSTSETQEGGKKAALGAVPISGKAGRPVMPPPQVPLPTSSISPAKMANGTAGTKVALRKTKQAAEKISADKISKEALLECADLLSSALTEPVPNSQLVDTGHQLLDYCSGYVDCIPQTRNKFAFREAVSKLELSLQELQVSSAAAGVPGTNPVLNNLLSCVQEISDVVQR

[5] = biological target: T2, Inhibitor of nuclear factor kappa-B kinase subunit epsilon (Homo sapiens, UniProt Q14164)
T2 sequence (Q14164 whole entry): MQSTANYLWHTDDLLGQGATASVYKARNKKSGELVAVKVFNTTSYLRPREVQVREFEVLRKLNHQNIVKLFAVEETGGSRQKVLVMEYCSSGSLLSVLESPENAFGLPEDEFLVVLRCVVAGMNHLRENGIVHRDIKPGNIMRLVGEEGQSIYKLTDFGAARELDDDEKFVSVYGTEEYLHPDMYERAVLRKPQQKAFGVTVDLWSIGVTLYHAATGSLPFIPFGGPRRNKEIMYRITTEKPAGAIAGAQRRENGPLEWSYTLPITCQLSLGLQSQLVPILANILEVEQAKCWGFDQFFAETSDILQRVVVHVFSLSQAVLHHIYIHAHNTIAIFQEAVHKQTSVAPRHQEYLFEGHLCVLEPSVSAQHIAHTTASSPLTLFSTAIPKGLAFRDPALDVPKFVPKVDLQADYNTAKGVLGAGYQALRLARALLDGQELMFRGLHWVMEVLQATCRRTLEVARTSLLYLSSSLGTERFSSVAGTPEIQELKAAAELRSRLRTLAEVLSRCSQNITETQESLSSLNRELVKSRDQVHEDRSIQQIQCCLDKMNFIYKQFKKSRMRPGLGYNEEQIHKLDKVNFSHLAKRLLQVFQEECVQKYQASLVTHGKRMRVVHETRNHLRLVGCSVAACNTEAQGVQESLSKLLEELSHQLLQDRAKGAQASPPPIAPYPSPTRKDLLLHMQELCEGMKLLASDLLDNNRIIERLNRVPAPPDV

[6] = biological target: T3, Serine/threonine-protein kinase Nek9 (Homo sapiens, UniProt Q8TD19)
T3 sequence (Q8TD19 whole entry): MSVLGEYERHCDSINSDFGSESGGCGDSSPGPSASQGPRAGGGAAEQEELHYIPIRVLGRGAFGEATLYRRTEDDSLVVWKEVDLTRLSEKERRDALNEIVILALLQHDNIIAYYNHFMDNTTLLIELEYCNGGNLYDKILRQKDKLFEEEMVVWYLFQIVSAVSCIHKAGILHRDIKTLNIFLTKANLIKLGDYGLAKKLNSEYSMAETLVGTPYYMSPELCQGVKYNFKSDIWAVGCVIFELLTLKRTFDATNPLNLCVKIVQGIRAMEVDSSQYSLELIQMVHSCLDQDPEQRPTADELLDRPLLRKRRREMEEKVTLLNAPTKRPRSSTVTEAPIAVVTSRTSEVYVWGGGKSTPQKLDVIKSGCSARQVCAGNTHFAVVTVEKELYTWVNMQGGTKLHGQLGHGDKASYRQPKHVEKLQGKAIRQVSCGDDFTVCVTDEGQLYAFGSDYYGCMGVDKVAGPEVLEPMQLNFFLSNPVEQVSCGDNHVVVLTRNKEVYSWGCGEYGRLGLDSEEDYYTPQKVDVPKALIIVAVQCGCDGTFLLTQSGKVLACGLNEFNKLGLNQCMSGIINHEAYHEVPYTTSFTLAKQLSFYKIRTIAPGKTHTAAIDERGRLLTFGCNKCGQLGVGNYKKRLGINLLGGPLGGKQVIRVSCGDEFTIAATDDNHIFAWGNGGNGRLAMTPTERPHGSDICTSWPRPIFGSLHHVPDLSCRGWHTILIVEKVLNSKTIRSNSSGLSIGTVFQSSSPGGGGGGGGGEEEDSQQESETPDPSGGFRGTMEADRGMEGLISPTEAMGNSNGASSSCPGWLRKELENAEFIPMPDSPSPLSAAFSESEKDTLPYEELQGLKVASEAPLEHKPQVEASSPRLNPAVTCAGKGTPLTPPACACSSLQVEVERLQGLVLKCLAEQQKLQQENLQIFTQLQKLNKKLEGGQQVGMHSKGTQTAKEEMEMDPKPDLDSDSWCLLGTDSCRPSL

Heme oxygenase 2 = biological target: T4, Heme oxygenase 2 (Homo sapiens, UniProt P30519)
T4 sequence (P30519 whole entry): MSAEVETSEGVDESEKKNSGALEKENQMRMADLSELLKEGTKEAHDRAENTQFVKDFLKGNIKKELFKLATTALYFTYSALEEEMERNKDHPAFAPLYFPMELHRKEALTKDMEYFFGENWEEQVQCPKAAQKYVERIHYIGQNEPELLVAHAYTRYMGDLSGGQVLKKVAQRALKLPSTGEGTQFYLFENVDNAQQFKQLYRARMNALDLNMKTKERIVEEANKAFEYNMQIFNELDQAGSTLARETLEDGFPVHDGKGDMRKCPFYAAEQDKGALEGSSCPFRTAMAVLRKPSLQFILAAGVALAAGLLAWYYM

Obg-like ATPase 1 = Obg-like ATPase 1 (Homo sapiens, UniProt Q9NTK5)
Chain of Obg-like ATPase 1 (Q9NTK5 whole entry, looked up): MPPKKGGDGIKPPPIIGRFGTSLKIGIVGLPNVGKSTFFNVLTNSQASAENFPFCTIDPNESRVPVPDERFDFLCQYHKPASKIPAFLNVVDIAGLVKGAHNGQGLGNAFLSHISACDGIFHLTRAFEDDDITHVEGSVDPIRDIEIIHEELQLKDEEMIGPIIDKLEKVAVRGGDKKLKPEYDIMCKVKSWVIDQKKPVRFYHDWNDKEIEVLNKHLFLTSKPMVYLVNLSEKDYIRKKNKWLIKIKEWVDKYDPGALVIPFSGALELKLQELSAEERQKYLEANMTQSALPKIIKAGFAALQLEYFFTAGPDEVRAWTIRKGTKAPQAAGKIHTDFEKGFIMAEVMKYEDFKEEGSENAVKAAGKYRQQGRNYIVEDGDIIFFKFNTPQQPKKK
Note: in the data inactive means no Kd found up to 30 µM.

| SMILES | Kd [1] | Kd [2] | Kd [3] | Kd [4] | Kd [5] | Kd [6] | Kd (Heme oxygenase 2) | Kd (Obg-like ATPase 1) |
| --- | --- | --- | --- | --- | --- | --- | --- | --- |
| C[C@@H](Oc1cc(C(=O)Nc2ccc(C(=O)N3CCN(C)CC3)cc2)nnc1N)c1c(Cl)ccc(F)c1Cl | > 30 µM (inactive) | > 30 µM (inactive) | > 30 µM (inactive) | > 30 µM (inactive) | > 30 µM (inactive) | > 30 µM (inactive) | > 30 µM (inactive) |  |
| C[C@H]1CNCCCN1S(=O)(=O)c1cccc2cncc(F)c12 | > 30 µM (inactive) | 3.27 µM (active) | > 30 µM (inactive) | > 30 µM (inactive) | > 30 µM (inactive) | > 30 µM (inactive) | > 30 µM (inactive) |  |
| Nc1ncnc2c1c(-c1cccc(OCc3ccccc3)c1)cn2[C@H]1C[C@@H](CN2CCC2)C1 [AEW-541] | > 30 µM (inactive) | > 30 µM (inactive) | > 30 µM (inactive) | > 30 µM (inactive) | > 30 µM (inactive) | > 30 µM (inactive) | > 30 µM (inactive) |  |
| CNC(=O)c1ccccc1Sc1ccc2c(/C=C/c3ccccn3)n[nH]c2c1 [AXITINIB] | > 30 µM (inactive) |  |  |  |  |  | > 30 µM (inactive) | > 30 µM (inactive) |
| Cc1cc(Nc2ncc(Cl)c(Nc3ccccc3S(=O)(=O)C(C)C)n2)c(OC(C)C)cc1C1CCNCC1 [CERITINIB] | > 30 µM (inactive) | > 30 µM (inactive) | > 30 µM (inactive) | > 30 µM (inactive) | > 30 µM (inactive) | > 30 µM (inactive) | > 30 µM (inactive) |  |
| CCS(=O)(=O)N1CCN(c2ccc(Nc3ncc(C(N)=O)c(NC4CC4)n3)cc2)CC1 [Cerdulatinib Hydrochloride] | > 30 µM (inactive) | 10.8 µM (active) | 0.203 µM (active) | > 30 µM (inactive) | 1.29 µM (active) | > 30 µM (inactive) | > 30 µM (inactive) |  |
| Cn1cc(C2=C(c3cn(C4CCN(Cc5ccccn5)CC4)c4ccccc34)C(=O)NC2=O)c2ccccc21 [ENZASTAURIN] | > 30 µM (inactive) |  |  |  |  |  | > 30 µM (inactive) |  |
| C[C@@H](Oc1cc(-n2cnc3ccc(CN4CCN(C)CC4)cc32)sc1C(N)=O)c1ccccc1C(F)(F)F [GSK-461364] | > 30 µM (inactive) |  |  |  |  |  | > 30 µM (inactive) | > 30 µM (inactive) |
| CCn1cc(-c2ccnc3[nH]c(-c4cccc(CN(C)C)c4)cc23)c(-c2ccc(NC(=O)N(C)C)cc2)n1 [GSK-1070916] |  | > 30 µM (inactive) | > 30 µM (inactive) | > 30 µM (inactive) |  | > 30 µM (inactive) | > 30 µM (inactive) |  |
| O=C(Nc1cc(C(F)(F)F)cc(C(F)(F)F)c1)c1cc(Cl)ccc1O [IMD-0354] | > 30 µM (inactive) |  | > 30 µM (inactive) | > 30 µM (inactive) | > 30 µM (inactive) | > 30 µM (inactive) | > 30 µM (inactive) |  |
| CNC(=O)c1nn(C)c2c1C(C)(C)Cc1cnc(Nc3ccc(N4CCN(C)CC4)cc3)nc1-2 [MILCICLIB] | > 30 µM (inactive) | > 30 µM (inactive) |  | 3.75 µM | 2.97 µM (active) | 19.6 µM (active) | > 30 µM (inactive) |  |
| FC(F)(F)c1ccc(/C=C/c2nc(COc3ccc(CCCCn4ccnn4)cc3)co2)cc1 [MUBRITINIB] | > 30 µM (inactive) | > 30 µM (inactive) | > 30 µM (inactive) | > 30 µM (inactive) | > 30 µM (inactive) | > 30 µM (inactive) | > 30 µM (inactive) |  |
| Cc1[nH]c(/C=C2\C(=O)Nc3ccccc32)c(C)c1CCC(=O)O [ORANTINIB] | > 30 µM (inactive) |  | 0.744 µM (active) | > 30 µM (inactive) |  | > 30 µM (inactive) | > 30 µM (inactive) |  |
| NC(=O)c1c(OCc2c(F)cc(Br)cc2F)nsc1NC(=O)NCCCCN1CCCC1 [OSI-632] | > 30 µM (inactive) |  |  | > 30 µM (inactive) |  | > 30 µM (inactive) | > 30 µM (inactive) |  |
| CO[C@H]1C[C@@H]2CC[C@@H](C)[C@@](O)(O2)C(=O)C(=O)N2CCCC[C@H]2C(=O)O[C@H]([C@H](C)C[C@@H]2CC[C@@H](OP(C)(C)=O)[C@H](OC)C2)CC(=O)[C@H](C)/C=C(\C)[C@@H](O)[C@@H](OC)C(=O)[C@H](C)C[C@H](C)/C=C/C=C/C=C/1C [RIDAFOROLIMUS] | > 30 µM (inactive) | > 30 µM (inactive) | > 30 µM (inactive) | > 30 µM (inactive) | > 30 µM (inactive) | > 30 µM (inactive) | > 30 µM (inactive) |  |
| O=C(NOCCO)c1cc(CN2OCCCC2=O)c(F)c(F)c1Nc1ccc(I)cc1F [RO-4987655] |  |  |  |  |  |  | > 30 µM (inactive) | > 30 µM (inactive) |
| N#CC[C@H](C1CCCC1)n1cc(-c2ncnc3[nH]ccc23)cn1 [RUXOLITINIB] | > 30 µM (inactive) |  |  |  |  |  | > 30 µM (inactive) |  |
| CN1CCN(CCOc2cc(OC3CCOCC3)c3c(Nc4c(Cl)ccc5c4OCO5)ncnc3c2)CC1 [SARACATINIB] | > 30 µM (inactive) | > 30 µM (inactive) |  |  | > 30 µM (inactive) | > 30 µM (inactive) | > 30 µM (inactive) |  |
| CC(C)c1cc(CNc2nc(Nc3cc(C4CC4)[nH]n3)cc(N3CCN(C)CC3)n2)on1 [XL-228] | > 30 µM (inactive) | 0.38 µM (active) | > 30 µM (inactive) | 0.008 µM (active) | 1.39 µM (active) | > 30 µM (inactive) | > 30 µM (inactive) |  |
| CN1C/C=C/CCOc2cccc(c2)-c2ccnc(n2)Nc2cccc(c2)C1 [ZOTIRACICLIB] | > 30 µM (inactive) | > 30 µM (inactive) | > 30 µM (inactive) | > 30 µM (inactive) | > 30 µM (inactive) | > 30 µM (inactive) | > 30 µM (inactive) |  |
